# Source: US11214803B2, “Modulators of YAP1 expression” (Ionis Pharmaceuticals, Inc., priority 2019, dated 2022)
# Strand notation (5' to 3'): a small letter for the sugar, then the base; units joined by * are phosphorothioate-linked, units joined directly phosphodiester-linked; [ ] holds rarer units or linkages, { } end groups; capitals alone tell only the bases. k = constrained ethyl (cEt); [5mC] = 5-methylcytosine; d = 2'-deoxy (DNA)
# System: Yap1 mRNA
# Experiment: Antisense inhibition of human Yap1 in A-431 cells by cEt gapmers, single dose (Example 2, RTS4814)
# Assay type: cell-based
# Conditions: A-431 cells, 5,000 cells per well, free uptake, 2,000 nM modified oligonucleotide, approx. 48 hours, RTS4814, normalized to RIBOGREEN; Table 4; asterisk (*) = targets amplicon region of primer probe set
# Procedure, shortened: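 Read-out is Yap1 mRNA as percent of untreated cells, by real-time RT-PCR (probe set RTS4814) normalized to total RNA via RIBOGREEN. Cells were A-431 dosed with 2,000 nM gapmer without transfection for approximately 48 hours.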
row,Substance,YAP1 (% UTC)
1,716394 (kG*kT*kT*dG*d[5mC]*dT*dG*d[5mC]*dA*dG*dT*d[5mC]*dG*k[5mC]*kA*kT; antisense) [Compound 716394],120
2,716415 (kA*kG*k[5mC]*dT*d[5mC]*d[5mC]*dT*d[5mC]*dT*d[5mC]*d[5mC]*dT*dT*k[5mC]*kT*kA; antisense) [Compound 716415],90

# Same assay, conditions: Table 6; A-431 cells, 5,000 cells per well, free uptake, 2,000 nM modified oligonucleotide, approx. 48 hours; RTS4814; normalized to RIBOGREEN; Yap1 mRNA relative to untreated control cells
row,Substance,YAP1 (% UTC)
1,716561 (kA*kA*kG*dG*dT*dA*dT*dT*dA*d[5mC]*dA*dT*dA*kA*kG*kA; antisense) [Compound 716561],58
2,716378 (kG*k[5mC]*kA*dG*dA*dG*dG*dT*dA*d[5mC]*dA*dT*d[5mC]*kA*kT*k[5mC]; antisense) [Compound 716378],44
3,716384 (kA*kG*kG*dA*d[5mC]*d[5mC]*dT*dG*dA*dA*dG*d[5mC]*d[5mC]*kG*kA*kG; antisense) [Compound 716384],71
4,716501 (kG*k[5mC]*kA*d[5mC]*dT*dG*dA*dA*dA*dG*dT*dA*d[5mC]*kT*kT*kA; antisense) [Compound 716501],32

# Same assay, conditions: Table 18; A-431 cells, 5,000 cells per well, free uptake, 2,000 nM modified oligonucleotide, approx. 48 hours; RTS4814; normalized to RIBOGREEN; Yap1 mRNA as percent of untreated control
row,Substance,YAP1 (% UTC)
1,1076164 (kT*kG*kA*dT*dA*dT*dA*dA*dG*dT*dT*dA*d[5mC]*k[5mC]*kA*kA; antisense) [Compound 1076164],50
2,1074948 (antisense kG*kA*kG*dT*dT*d[5mC]*d[5mC]*dA*dA*dA*dA*d[5mC]*d[5mC]*k[5mC]*kT*kT) [Compound 1074948],61
3,1075844 (kT*kA*kT*dT*dA*dA*dA*dT*dA*dA*dG*dA*dG*k[5mC]*kT*k[5mC]; antisense) [Compound 1075844],84

# Same assay, conditions: Table 19; A-431 cells, 5,000 cells per well, free uptake, 2,000 nM modified oligonucleotide, approx. 48 hours; RTS4814; normalized to RIBOGREEN; Yap1 mRNA as percent of untreated control
row,Substance,YAP1 (% UTC)
1,1075077 (antisense kT*kA*kT*dA*d[5mC]*dG*dG*dT*d[5mC]*d[5mC]*dA*dT*dA*kA*k[5mC]*kA) [Compound 1075077],35

# Same assay, conditions: Table 20; Yap1 mRNA, percent of untreated control; 3-10-3 cEt gapmers targeting SEQ ID NO.: 1 and 2
row,Substance,YAP1 (% UTC)
1,1075590 (k[5mC]*kA*kT*d[5mC]*dA*dA*dA*dA*dT*dT*dA*dG*d[5mC]*kA*kG*kG; antisense) [Compound 1075590],50
2,1075654 (kT*kA*kT*dT*dA*dA*dG*dA*d[5mC]*dG*dA*dA*dT*k[5mC]*k[5mC]*kA; antisense) [Compound 1075654],76
3,1074822 (kT*kA*kG*dA*dA*dA*dA*dG*dT*dG*dT*dT*dA*kA*kG*k[5mC]; antisense) [Compound 1074822],25
4,1074694 (antisense k[5mC]*k[5mC]*k[5mC]*d[5mC]*d[5mC]*d[5mC]*d[5mC]*d[5mC]*d[5mC]*dA*dA*dA*d[5mC]*kT*kT*kT) [Compound 1074694],79
5,1076294 (kT*kA*kT*dA*dT*dT*dA*dG*dT*dG*d[5mC]*d[5mC]*d[5mC]*k[5mC]*k[5mC]*kT; antisense) [Compound 1076294],6
6,1075398 (antisense kT*kA*kT*dA*dT*dA*dT*dG*dG*d[5mC]*d[5mC]*d[5mC]*dT*kT*kT*kA) [Compound 1075398],49
7,1074854 (antisense kA*k[5mC]*kA*dA*dT*dT*dG*dT*dT*dA*dT*dG*dA*kT*kA*kG) [Compound 1074854],23

# Same assay, conditions: Table 21; Yap1 mRNA, percent of untreated control; 3-10-3 cEt gapmers targeting SEQ ID NO.: 1 and 2
row,Substance,YAP1 (% UTC)
1,1075367 (k[5mC]*kA*kT*dT*dA*d[5mC]*dT*dT*dA*dG*dG*dG*d[5mC]*kT*kT*kA; antisense) [Compound 1075367],12
2,1075047 (antisense kT*kA*kA*dA*dA*dT*dT*dA*dG*dA*d[5mC]*dT*d[5mC]*k[5mC]*k[5mC]*k[5mC]) [Compound 1075047],7
3,1075015 (antisense k[5mC]*kA*kG*dA*dA*dT*dA*dA*dG*dT*dA*dT*dG*kA*kT*kT) [Compound 1075015],55

# Same assay, conditions: Table 22; Yap1 mRNA as percent of untreated control; 3-10-3 cEt gapmers; single dose
row,Substance,YAP1 (% UTC)
1,1074344 (antisense kT*kG*kA*dG*dA*d[5mC]*dA*dT*d[5mC]*d[5mC]*d[5mC]*dG*dG*kG*kA*kG) [Compound 1074344],99
2,1074696 (antisense kG*kT*k[5mC]*d[5mC]*d[5mC]*d[5mC]*d[5mC]*dT*dA*dA*dA*dT*d[5mC]*kT*kT*k[5mC]) [Compound 1074696],38
3,1075656 (kA*kA*kA*dA*d[5mC]*dG*dG*dT*dT*dT*dT*dT*d[5mC]*kT*kA*kA; antisense) [Compound 1075656],103

# Same assay, conditions: Table 23; Yap1 mRNA as percent of untreated control; 3-10-3 cEt gapmers; single dose
row,Substance,YAP1 (% UTC)
1,1075273 (antisense kA*kA*kA*dT*dT*dA*dT*dG*dG*dT*d[5mC]*dA*dG*kG*k[5mC]*kT) [Compound 1075273],18
2,1074537 (antisense k[5mC]*kA*kG*dT*dA*dA*dT*dA*dG*d[5mC]*dT*d[5mC]*dT*kT*kT*k[5mC]) [Compound 1074537],3
3,1074345 (antisense kT*k[5mC]*kT*dG*dA*dG*d[5mC]*dT*dA*dT*dT*dG*dG*kT*k[5mC]*kG) [Compound 1074345],8

# Same assay, conditions: Table 24; Yap1 mRNA as percent of untreated control; 3-10-3 cEt gapmers targeting SEQ ID NO.: 1, and 2
row,Substance,YAP1 (% UTC)
1,1074762 (kG*k[5mC]*kT*dA*d[5mC]*d[5mC]*d[5mC]*dA*dA*dT*dA*d[5mC]*dA*kA*k[5mC]*k[5mC]; antisense) [Compound 1074762],6
2,1075146 (antisense kG*kT*kA*dT*dT*dA*dA*dG*dG*dG*dA*dT*dT*kT*kT*k[5mC]) [Compound 1075146],8
3,1075306 (kT*kA*kA*dA*d[5mC]*dG*dA*dA*dA*d[5mC]*dA*d[5mC]*dG*kG*kG*kT; antisense) [Compound 1075306],30
4,1074250 (antisense k[5mC]*kT*kG*dA*dT*d[5mC]*dG*dA*dT*dG*dT*dG*dA*kT*kT*kT) [Compound 1074250],6
5,1076202 (kT*k[5mC]*kT*dA*dA*dA*dA*dA*dG*dA*d[5mC]*dA*dG*kG*kG*k[5mC]; antisense) [Compound 1076202],32
6,1075082 (antisense k[5mC]*kT*kT*dT*dA*dG*dA*dT*dA*d[5mC]*dA*dA*dG*kA*kG*kG) [Compound 1075082],80

# Same assay, conditions: Table 25; Yap1 mRNA as percent of untreated control; 3-10-3 cEt gapmers targeting SEQ ID NO.: 1, and 2
row,Substance,YAP1 (% UTC)
1,1076171 (kA*kT*kT*dA*dG*dT*dA*dA*dA*dG*dA*dG*dT*kA*k[5mC]*kT; antisense) [Compound 1076171],30
2,1076075 (kA*k[5mC]*kA*d[5mC]*dA*dA*dG*dG*dG*dT*dT*dG*d[5mC]*kT*kA*kA; antisense) [Compound 1076075],38
3,1074795 (k[5mC]*k[5mC]*kA*dA*dA*dT*d[5mC]*dA*dA*dT*dG*dT*dG*k[5mC]*kT*k[5mC]; antisense) [Compound 1074795],4

# Same assay, conditions: Table 32; Yap1 mRNA, percent of untreated control; 3-10-3 cEt gapmers targeting SEQ ID NO.: 1, and 2
row,Substance,YAP1 (% UTC)
1,1075922 (antisense kG*k[5mC]*k[5mC]*d[5mC]*dA*dA*dA*dA*dT*dA*dG*dG*dA*kT*kA*k[5mC]) [compound 1075922],60
2,1074258 (antisense kA*kT*kA*dT*dT*d[5mC]*dT*dG*d[5mC]*dT*dG*d[5mC]*dA*k[5mC]*kT*kG) [compound 1074258],36

# Same assay, conditions: Table 33; Yap1 mRNA, percent of untreated control; 3-10-3 cEt gapmers targeting SEQ ID NO.: 1, and 2
row,Substance,YAP1 (% UTC)
1,1074899 (antisense kT*kA*kA*d[5mC]*dT*dT*dT*dT*dG*dG*dG*d[5mC]*dA*kA*kA*kG) [compound 1074899],52
2,1074547 (kG*kA*kG*d[5mC]*dA*d[5mC]*dT*d[5mC]*d[5mC]*d[5mC]*d[5mC]*dT*dA*kG*kG*k[5mC]; antisense) [compound 1074547],71
3,1076371 (antisense kT*kA*kA*dG*dA*dA*d[5mC]*dG*dA*dA*d[5mC]*d[5mC]*dT*k[5mC]*k[5mC]*kA) [compound 1076371],49

# Same assay, conditions: Yap1 mRNA as percent of untreated control; A-431 cells; 3-10-3 cEt gapmers targeting SEQ ID NO.: 1, and 2; Table 30
row,Substance,YAP1 (% UTC)
1,1074192 (antisense kG*kA*k[5mC]*dG*dG*d[5mC]*dG*dG*dG*d[5mC]*d[5mC]*d[5mC]*dT*kG*k[5mC]*k[5mC]) [compound 1074192],108
2,1075984 (kT*kA*kT*d[5mC]*dG*dA*dA*dA*dA*dG*d[5mC]*dA*dA*kA*k[5mC]*kT; antisense) [compound 1075984],44
3,1074352 (antisense k[5mC]*kA*kT*dG*d[5mC]*dT*dT*dA*dG*dT*d[5mC]*d[5mC]*dA*k[5mC]*kT*kG) [compound 1074352],69
4,1076144 (kT*kT*kT*dT*dA*dT*dA*dG*dG*dG*d[5mC]*dA*dA*kT*kG*kG; antisense) [compound 1076144],7

# Same assay, conditions: Yap1 mRNA as percent of untreated control; A-431 cells; 3-10-3 cEt gapmers targeting SEQ ID NO.: 1, and 2; Table 31
row,Substance,YAP1 (% UTC)
1,1075121 (kA*kA*kA*dA*dT*dT*dA*dG*d[5mC]*d[5mC]*dT*dA*d[5mC]*k[5mC]*kA*k[5mC]; antisense) [compound 1075121],40
2,1075185 (kG*k[5mC]*k[5mC]*d[5mC]*dA*dA*dG*dA*dA*d[5mC]*dA*d[5mC]*dT*kG*kG*kT; antisense) [compound 1075185],78
